Source: patent US5948749A, “Pharmaceutical preparations for intranasal administration” (Fuji Yakuhin Company, Limited, priority 1996, dated 1999)

Test system: ophthalmic mucous membrane
Conditions: rabbit, in vivo
Description: The testing method of the present test was based on the guidelines given by OECD. That means, 3 rabbits were used in this study, and a test drug was administered once into one eye of a rabbit in the conjunctival sac, and the other eye was used as control. […] Eyes were washed using lukewarm water of about 35° C. at the observation 24 hours after the administration. Scores of the conjunctival reaction obtained by administration of each test drug were calculated according to the assessment criteria of Draize method. The maximum of total score at each observation time was obtained for each test drug and for each test animal, and the average was calculated, then irritation evaluation in 8 stages (FIG. 9) was carried out according to the Kay and Calandra ophthalmic mucous membrane irritation classification method.

average value (score) of the maximum Draize score: 29.0
Substance: sodium polystyrene sulphonate
Kay and Calandra ophthalmic mucous membrane irritation classification (8 levels): Moderately irritating
